We go through 25 compounds from patent EP4692090A1 (Shanghai Fosun Pharmaceutical (Group) Co., Ltd., priority 2023, dated 2024).

One assay has as its system LoVo cells. Description: LoVo cell proliferation assay (CellTiter-Glo). It counts as cell-based. Particulars: Homo sapiens, LoVo, 120 h, maximum concentration 10 µM, 9 concentrations. The gist of the method: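 LoVo cells, 2,000 per well, were treated after overnight attachment with 9-point 3-fold dilutions from 10 µM for 5 days at 37 °C. Viability was read by CellTiter-Glo luminescence. Inhibition % was taken relative to DMSO control, and IC50 came from the concentration–inhibition curve.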
A general note: In ATP-based viability assays light output follows the ATP content of the culture.

The next assay addresses T1, ATR kinase (Homo sapiens, UniProt Q13535).
T1 construct: purchased Eurofins 14-953
The experiment in a line: Inhibitory effect on ATR kinase activity (Caliper mobility shift, FAM-labeled RAD17 peptide substrate). Type of assay: biochemical. The method, boiled down: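 Caliper mobility-shift assay with 1 nM ATR, FAM-labeled RAD17 peptide […] and 5 mM ATP in HEPES pH 7.5 with 10 mM MnCl2, run 3 h at 28 °C and stopped with EDTA. Compounds were tested in 10-point 3-fold dilutions from 1 µM. IC50 was fitted from % inhibition of substrate conversion versus blank control.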

The mark [1] stands for this setting: LoVo cells, 2,000 cells per well, 5 days incubation, CellTiter-Glo, read-out: LoVo IC50.
[2] abbreviates: 1 nM ATR kinase (Eurofins), 28°C for 3 hours, maximum concentration 1 µM, 10 concentrations, read-out: ATR kinase IC50.
[3] abbreviates: read-out: LoVo IC50 (nM), LoVo cells, 2,000 cells per well, 5 days incubation, CellTiter-Glo.
[4] abbreviates: read-out: ATR kinase IC50, 1 nM ATR kinase (Eurofins), 28°C for 3 hours, maximum concentration 1 µM, 10 concentrations.

SMILES strings stand for the structures. Read-outs that look alike come from different tables or passages of the source.

T1 sequence (Q13535 whole entry): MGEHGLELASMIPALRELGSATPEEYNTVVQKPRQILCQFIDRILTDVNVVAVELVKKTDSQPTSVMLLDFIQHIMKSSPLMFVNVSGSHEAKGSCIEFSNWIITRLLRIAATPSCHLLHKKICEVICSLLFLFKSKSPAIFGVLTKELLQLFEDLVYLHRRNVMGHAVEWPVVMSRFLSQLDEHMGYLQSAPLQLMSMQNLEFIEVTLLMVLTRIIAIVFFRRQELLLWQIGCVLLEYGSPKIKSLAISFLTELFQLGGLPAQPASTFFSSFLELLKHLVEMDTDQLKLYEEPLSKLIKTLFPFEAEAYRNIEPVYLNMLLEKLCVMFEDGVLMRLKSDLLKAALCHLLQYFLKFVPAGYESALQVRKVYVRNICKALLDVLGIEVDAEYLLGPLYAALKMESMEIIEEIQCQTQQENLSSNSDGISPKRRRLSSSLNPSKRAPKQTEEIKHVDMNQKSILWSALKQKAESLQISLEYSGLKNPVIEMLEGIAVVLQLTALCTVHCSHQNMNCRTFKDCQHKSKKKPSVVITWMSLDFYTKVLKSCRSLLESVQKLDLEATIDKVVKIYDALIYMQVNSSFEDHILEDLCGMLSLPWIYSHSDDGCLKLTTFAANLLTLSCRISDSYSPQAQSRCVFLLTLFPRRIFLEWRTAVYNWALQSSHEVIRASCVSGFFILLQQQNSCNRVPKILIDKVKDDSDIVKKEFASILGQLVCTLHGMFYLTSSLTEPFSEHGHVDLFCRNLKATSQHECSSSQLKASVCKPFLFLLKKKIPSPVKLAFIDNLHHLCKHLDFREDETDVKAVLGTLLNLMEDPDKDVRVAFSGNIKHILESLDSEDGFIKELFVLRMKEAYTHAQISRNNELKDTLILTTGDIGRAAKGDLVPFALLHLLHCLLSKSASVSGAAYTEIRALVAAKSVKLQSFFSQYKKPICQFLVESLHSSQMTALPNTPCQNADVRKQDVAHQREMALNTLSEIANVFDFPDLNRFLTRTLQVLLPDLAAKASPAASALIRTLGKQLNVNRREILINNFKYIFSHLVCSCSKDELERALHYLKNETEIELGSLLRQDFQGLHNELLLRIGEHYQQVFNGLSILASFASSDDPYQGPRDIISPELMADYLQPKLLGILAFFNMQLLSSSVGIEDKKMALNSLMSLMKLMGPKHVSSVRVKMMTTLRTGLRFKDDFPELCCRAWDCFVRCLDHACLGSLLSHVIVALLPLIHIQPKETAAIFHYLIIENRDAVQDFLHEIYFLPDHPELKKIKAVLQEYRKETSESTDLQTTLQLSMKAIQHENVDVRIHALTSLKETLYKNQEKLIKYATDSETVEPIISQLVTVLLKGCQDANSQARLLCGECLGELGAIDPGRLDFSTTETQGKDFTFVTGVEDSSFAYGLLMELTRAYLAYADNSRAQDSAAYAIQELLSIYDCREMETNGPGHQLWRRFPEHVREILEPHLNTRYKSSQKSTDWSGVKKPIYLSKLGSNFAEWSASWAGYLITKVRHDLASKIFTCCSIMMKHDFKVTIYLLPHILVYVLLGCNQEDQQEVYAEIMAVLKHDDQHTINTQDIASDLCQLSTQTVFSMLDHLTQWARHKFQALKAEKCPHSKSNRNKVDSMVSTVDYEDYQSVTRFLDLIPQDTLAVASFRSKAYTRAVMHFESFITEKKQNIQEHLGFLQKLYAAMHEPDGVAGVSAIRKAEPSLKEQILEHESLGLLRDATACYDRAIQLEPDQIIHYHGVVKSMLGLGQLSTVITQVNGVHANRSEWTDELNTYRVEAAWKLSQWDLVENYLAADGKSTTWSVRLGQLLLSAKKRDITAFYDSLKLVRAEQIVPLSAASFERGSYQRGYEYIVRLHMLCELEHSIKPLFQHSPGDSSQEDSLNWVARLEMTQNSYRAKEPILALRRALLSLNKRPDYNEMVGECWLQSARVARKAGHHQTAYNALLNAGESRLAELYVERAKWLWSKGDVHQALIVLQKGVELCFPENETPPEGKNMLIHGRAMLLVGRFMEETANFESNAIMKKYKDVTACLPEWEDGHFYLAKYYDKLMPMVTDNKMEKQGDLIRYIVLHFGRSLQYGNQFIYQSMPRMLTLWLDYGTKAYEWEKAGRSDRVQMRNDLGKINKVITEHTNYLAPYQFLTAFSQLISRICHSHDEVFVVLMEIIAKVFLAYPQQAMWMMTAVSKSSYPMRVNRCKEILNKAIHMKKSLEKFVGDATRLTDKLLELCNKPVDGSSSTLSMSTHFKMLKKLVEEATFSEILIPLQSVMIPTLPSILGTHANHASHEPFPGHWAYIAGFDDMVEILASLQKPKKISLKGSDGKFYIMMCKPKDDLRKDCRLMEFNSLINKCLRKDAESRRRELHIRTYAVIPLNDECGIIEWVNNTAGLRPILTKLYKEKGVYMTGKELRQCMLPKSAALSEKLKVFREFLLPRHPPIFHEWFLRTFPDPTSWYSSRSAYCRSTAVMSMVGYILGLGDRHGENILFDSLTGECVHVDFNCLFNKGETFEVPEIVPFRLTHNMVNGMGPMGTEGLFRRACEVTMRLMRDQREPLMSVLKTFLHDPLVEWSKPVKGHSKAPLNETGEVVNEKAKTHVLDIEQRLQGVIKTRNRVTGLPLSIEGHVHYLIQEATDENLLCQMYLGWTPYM
T1 sequence (Q8WXE1 whole entry partner): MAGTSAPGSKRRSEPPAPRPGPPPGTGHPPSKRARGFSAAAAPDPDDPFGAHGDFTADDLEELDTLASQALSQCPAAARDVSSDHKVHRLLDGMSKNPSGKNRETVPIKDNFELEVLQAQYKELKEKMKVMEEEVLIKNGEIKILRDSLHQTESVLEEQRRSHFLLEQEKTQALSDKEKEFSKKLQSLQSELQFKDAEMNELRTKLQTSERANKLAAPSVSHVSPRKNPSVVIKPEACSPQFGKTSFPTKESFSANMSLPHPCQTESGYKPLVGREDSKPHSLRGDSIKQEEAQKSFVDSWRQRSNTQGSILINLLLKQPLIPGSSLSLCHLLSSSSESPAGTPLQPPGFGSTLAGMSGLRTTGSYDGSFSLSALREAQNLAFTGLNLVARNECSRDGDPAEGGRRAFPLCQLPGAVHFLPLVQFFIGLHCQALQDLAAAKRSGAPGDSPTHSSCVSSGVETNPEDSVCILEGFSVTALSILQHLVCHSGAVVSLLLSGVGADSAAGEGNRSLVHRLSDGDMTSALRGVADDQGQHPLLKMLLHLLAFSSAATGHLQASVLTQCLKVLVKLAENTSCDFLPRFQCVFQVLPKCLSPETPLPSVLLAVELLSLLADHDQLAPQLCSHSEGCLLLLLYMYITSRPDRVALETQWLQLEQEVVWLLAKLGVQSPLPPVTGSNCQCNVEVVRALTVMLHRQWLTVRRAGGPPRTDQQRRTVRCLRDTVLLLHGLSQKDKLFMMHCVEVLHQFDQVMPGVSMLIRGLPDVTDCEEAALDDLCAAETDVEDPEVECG

As for `CC1COCC1N1CCc2nn(-c3cc[nH]n3)c3nc(N4CCOC[C@H]4C)cc(c23)C1` (stereo partly drawn) [Compound 12, (3R)-3-methyl-4-(7-(4-methyltetrahydrofuran-3-yl)-2-(1H-pyrazol-3-yl)-6,7,8,9-tetrahydro-2H-1 ,2,3,7-tetraazabenzo[cd]azulen-4-yl)morpholine], the IC50 in the assay with LoVo cells (setting [1]) is 100 to 1000 nM; on ATR kinase (setting [2]), 0.01 to 0.1 µM.

For `C[C@@H]1COCCN1c1cc2c3c(nn(-c4cc[nH]n4)c3n1)CCN(CC(F)(F)F)C2` [Compound 14, (R)-4-(2-(1H-pyrazol-3-yl)-7-(2,2,2-trifluoroethyl)-6,7,8,9-tetrahydro-2H-1,2,3,7-tetraazabenzo[cd]azulen-4-yl)-3-methylmorpholine], the IC50 fell in the range of 100 to 1000 nM with LoVo cells (setting [1]) and 0.01 to 0.1 µM on ATR kinase (setting [2]).

Turning to `CC1CC(C(=O)N2CCc3nn(-c4cc[nH]n4)c4nc(N5CCOC[C@H]5C)cc(c34)C2)C1` (stereo partly drawn) [Compound 15, (R)-(3-methylcyclobutyl)(4-(3-methylmorpholino)-2-(1H-pyrazol-3-yl)-2,6,8,9-tetrahydro-7H-1,2,3,7-tetraazabenzo[cd]azulene-7-yl)methanone], the IC50 in the assay with LoVo cells (setting [1]) was in the range of 100 to 1000 nM; on ATR kinase (setting [2]), 0.01 to 0.1 µM.

Take `CC(C(=O)N1CCc2nn(-c3cc[nH]n3)c3nc(N4CCOC[C@H]4C)cc(c23)C1)C(F)(F)F` (stereo partly drawn) [Compound 16, 3,3,3-trifluoro-2-methyl-1-(4-((R)-3-methylmorpholinyl)-2-(1H-pyrazol-3-yl)-2,6,8,9-tetrahydro-7H-1,2,3,7-tetraazabenzo[cd]azulen-7-yl)propan-1-one]: the results for the IC50 in the assay on LoVo cells (setting [3]) and on ATR kinase (setting [4]) were 100 to 1000 nM and below 0.01 µM, respectively.

Consider `C[C@@H]1COCCN1c1cc2c3c(nn(-c4cc[nH]n4)c3n1)CCN(c1ccccc1)C2` [Compound 17, (R)-3-methyl-4-(7-phenyl-2-(1H-pyrazol-3-yl)-6,7,8,9-tetrahydro-2H-1,2,3,7-tetraazabenzo[cd]azulen-4-yl)morpholine], for which the figures for the IC50 in the assay with LoVo cells (setting [1]) and at ATR kinase (setting [2]) were above 1000 nM and 0.01 to 0.1 µM, respectively.

For `C[C@@H]1COCCN1c1cc2c3c(nn(-c4cc[nH]n4)c3n1)CCN(C(=O)C1(C(F)(F)F)CC1)C2` [Compound 18, (R)-(4-(3-methylmorpholinyl)-2-(1H-pyrazol-3-yl)-2,6,8,9-tetrahydro-7H-1,2,3,7-tetraazabenzo[cd]azulen-7-yl)(1-(trifluoromethyl)cyclopropyl)methanone], the IC50 in the assay with LoVo cells (setting [3]) was below 100 nM; at ATR kinase (setting [4]) it was below 0.01 µM.

With `C[C@@H]1COCCN1c1cc2c3c(nn(-c4cc[nH]n4)c3n1)CCN(C(=O)C1CC1(F)F)C2` (stereo partly drawn) [Compound 19, (2,2-difluorocyclopropyl)(4-((R)-3-methylmorpholino)-2-(1H-pyrazol-3-yl)-2,6,8,9-tetrahydro-7H-1,2,3,7-tetraazabenzo[cd]azulene-7-yl)methanone], the results for the IC50 in the assay with LoVo cells (setting [1]) and at ATR kinase (setting [2]) were 100 to 1000 nM and below 0.01 µM, respectively.

As for `C#CC(C)N1CCc2nn(-c3cc[nH]n3)c3nc(N4CCOC[C@H]4C)cc(c23)C1` (stereo partly drawn) [Compound 21, (3R)-4-(7-(but-3-yn-2-yl)-2-(1H-pyrazol-3-yl)-6,7,8,9-tetrahydro-2H-1,2,3,7-tetraazabenzo[cd]azulen-4-yl)-3-methylmorpholine], the IC50 lay in the range of 100 to 1000 nM with LoVo cells (setting [1]) and 0.01 to 0.1 µM at ATR kinase (setting [2]).

As to `C[C@@H]1COCCN1c1cc2c3c(nn(-c4cc[nH]n4)c3n1)CCN(S(C)(=O)=O)C2` [Compound 22, (R)-3-methyl-4-(7-(methylsulfonyl)-2-(1H-pyrazol-3-yl)-6,7,8,9-tetrahydro-2H-1,2,3,7-tetraazabenzo[cd]azulen-4-yl)morpholine], the IC50 was below 100 nM with LoVo cells (setting [1]) and below 0.01 µM at ATR kinase (setting [2]).

Turning to `C[C@@H]1COCCN1c1cc2c3c(nn(-c4cc[nH]n4)c3n1)CCN(S(=O)(=O)C1CC1)C2` [Compound 23, (R)-4-(7-(cyclopropylsulfonyl)-2-(1H-pyrazol-3-yl)-6,7,8,9-tetrahydro-2H-1,2,3,7-tetraazabenzo[cd]azulen-4-yl)-3-methylmorpholine], the IC50 in the assay with LoVo cells (setting [1]) was 100 to 1000 nM; on ATR kinase (setting [2]), below 0.01 µM.

Consider `CC(C)S(=O)(=O)N1CCc2nn(-c3cc[nH]n3)c3nc(N4CCOC[C@H]4C)cc(c23)C1` [Compound 24, (R)-4-(7-(isopropylsulfonyl)-2-(1H-pyrazol-3-yl)-6,7,8,9-tetrahydro-2H-1,2,3,7-tetraazabenzo[cd]azulen-4-yl)-3-methylmorpholine], for which the values for the IC50 with LoVo cells (setting [1]) and at ATR kinase (setting [2]) were 100 to 1000 nM and below 0.01 µM, respectively.

On to `C[C@@H]1COCCN1c1cc2c3c(nn(-c4cc[nH]n4)c3n1)CCN(S(=O)(=O)C(F)F)C2` [Compound 27, (R)-4-(7-((difluoromethyl)sulfonyl)-2-(1H-pyrazol-3-yl)-6,7,8,9-tetrahydro-2H-1,2,3,7-tetraazabenzo[cd]azulen-4-yl)-3-methylmorpholine], for which the IC50 in the assay on LoVo cells (setting [1]) was 100 to 1000 nM; on ATR kinase (setting [2]) it was below 0.01 µM.

As for `C[C@@H]1COCCN1c1cc2c3c(nn(-c4cc[nH]n4)c3n1)CCN(S(C)(=N)=O)C2` (stereo partly drawn) [Compound 28, (3R)-3-methyl-4-(7-(S-methylsulfonylimino)-2-(1H-pyrazol-3-yl)-6,7,8,9-tetrahydro-2H-1,2,3,7-tetraazabenzo[cd]azulen-4-yl)morpholine], the IC50 in the assay with LoVo cells (setting [1]) is above 1000 nM; at ATR kinase (setting [2]), 0.01 to 0.1 µM.

In the case of `CC1c2cc(N3CCOC[C@H]3C)nc3c2c(nn3-c2cc[nH]n2)CCN1S(=O)(=O)CCO` (some centres unmarked) [Compound 34], the results for the IC50 with LoVo cells (setting [3]) and at ATR kinase (setting [4]) were 100 to 1000 nM and below 0.01 µM, respectively.

Consider `CC(=O)N1CCc2nn(-c3cc[nH]n3)c3nc(N4CCOC[C@H]4C)cc(c23)C1C` (stereo partly drawn) [Compound 38, 1-(6-methyl-4-((R)-3-methylmorpholinyl)-2-(1H-pyrazol-3-yl)-2,6,8,9-tetrahydro-7H-1,2,3,7-tetraazabenzo[cd]azulen-7-yl)ethan-1-one], for which the IC50 is 100 to 1000 nM in the assay on LoVo cells (setting [3]) and below 0.01 µM on ATR kinase (setting [4]).

As to `C=CS(=O)(=O)N1CCc2nn(-c3cc[nH]n3)c3nc(N4CCOC[C@H]4C)cc(c23)C1C` (stereo partly drawn) [Compound 50, (3R)-3-methyl-4-(6-methyl-2-(1H-pyrazol-3-yl)-7-(vinylsulfonyl)-6,7,8,9-tetrahydro-2H-1,2,3,7-tetraazabenzo[cd]azulen-4-yl)morpholine], the results for the IC50 in the assay on LoVo cells (setting [1]) and at ATR kinase (setting [2]) were below 100 nM and below 0.01 µM, respectively.

Take `C[C@@H]1COCCN1c1cc2c3c(n1)c(-c1cc[nH]n1)nn3CCN(C1CC(F)(F)C1)C2` [Compound 52, (R)-4-(7-(3,3-difluorocyclobutyl)-2-(1H-pyrazol-3-yl)-6,7,8,9-tetrahydro-1,3,7,9a-tetraazabenzo[cd]azulen-4-yl)-3-methylmorpholine]: the results for the IC50 in the assay on LoVo cells (setting [1]) and on ATR kinase (setting [2]) were above 1000 nM and 0.01 to 0.1 µM, respectively.

For the compound `C[C@@H]1COCCN1c1cc2c3c(n1)c(-c1cc[nH]n1)nn3CCN(C(=O)C1CC(F)(F)C1)C2` [Compound 53, (R)-(3,3-difluorocyclobutyl)(4-(3-methylmorpholino)-2-(1H-pyrazol-3-yl)-8,9-dihydro-1,3,7,9a-tetraazabenzo[cd]azulene-7(6H)-yl)methanone], the IC50 with LoVo cells (setting [1]) was above 1000 nM; at ATR kinase (setting [2]), 0.01 to 0.1 µM.

Consider `C[C@@H]1COCCN1c1cc2c3c(n1)c(-c1cc[nH]n1)nn3CCN(C(=O)C1CC1)C2` [Compound 54, (R)-cyclopropyl(4-(3-methylmorpholino)-2-(1H-pyrazol-3-yl)-8,9-dihydro-1,3,7,9a-tetraazabenzo[cd]azulene-7(6H)-yl)methanone], for which the IC50 was 100 to 1000 nM with LoVo cells (setting [1]) and 0.01 to 0.1 µM on ATR kinase (setting [2]).

With `C[C@@H]1COCCN1c1cc2c3c(n1)c(-c1cc[nH]n1)nn3CCN(S(C)(=O)=O)C2` [Compound 55, (R)-3-methyl-4-(7-(methylsulfonyl)-2-(1H-pyrazol-3-yl)-6,7,8,9-tetrahydro-1,3,7,9a-tetraazabenzo[cd]azulen-4-yl)morpholine], the IC50 in the assay on LoVo cells (setting [1]) lay within 100 to 1000 nM; at ATR kinase (setting [2]), 0.01 to 0.1 µM.

As for `CC1NC(=O)Cn2nc(-c3cc[nH]n3)c3nc(N4CCOC[C@H]4C)cc1c32` (stereo partly drawn) [Compound 56, 6-methyl-4-((R)-3-methylmorpholinyl)-2-(1H-pyrazol-3-yl)-6,7-dihydro-1,3,7,9a-tetraazabenzo[cd]azulen-8(9H)-one], the IC50 with LoVo cells (setting [3]) was above 1000 nM; on ATR kinase (setting [4]), 0.01 to 0.1 µM.

In the case of `CC1c2cc(N3CCOC[C@H]3C)nc3c(-c4cc[nH]n4)nn(c23)CCN1C1COC1` (stereo partly drawn) [Compound 57, (3R)-3-methyl-4-(6-methyl-7-(oxetan-3-yl)-2-(1H-pyrazol-3-yl)-6,7,8,9-tetrahydro-1,3,7,9a-tetraazabenzo[cd]azulen-4-yl)morpholine], the IC50 with LoVo cells (setting [1]) fell in the range of 100 to 1000 nM; at ATR kinase (setting [2]), 0.01 to 0.1 µM.

Consider `CC1=NCCn2nc(-c3cc[nH]n3)c3nc(N4CCOC[C@H]4C)cc1c32` [Compound 58, (R)-3-methyl-4-(6-methyl-2-(1H-pyrazol-3-yl)-8,9-dihydro-1,3,7,9a-tetraazabenzo[cd]azulen-4-yl)morpholine], for which the IC50 with LoVo cells (setting [1]) lay in the range of 100 to 1000 nM; on ATR kinase (setting [2]), 0.01 to 0.1 µM.

Take `C[C@@H]1COCCN1c1cc2c3c(n1)c(-c1cc[nH]n1)nn3CCN2C` [Compound 62, (R)-3-methyl-4-(5-methyl-1-(1H-pyrazol-3-yl)-4,5-dihydro-3H-2,2a,5,8-tetraazaacenaphthen-7-yl)morpholine]: the IC50 in the assay on LoVo cells (setting [1]) was above 1000 nM; at ATR kinase (setting [2]), 1 to 2.5 µM.

In the case of `CC(C)N1CCn2nc(-c3cc[nH]n3)c3nc(N4CCOC[C@H]4C)cc1c32` [Compound 63, (R)-4-(5-isopropyl-1-(1H-pyrazol-3-yl)-4,5-dihydro-3H-2,2a,5,8-tetraazaacenaphthen-7-yl)-3-methylmorpholine], the results for the IC50 in the assay on LoVo cells (setting [1]) and at ATR kinase (setting [2]) were 100 to 1000 nM and 0.1 to 1 µM, respectively.
